Assay results: patent US8871934B2, “Fluorene compound and pharmaceutical use thereof” (Japan Tobacco Inc., priority 2008, dated 2014)
Read-outs that look alike come from different tables or passages of the source.

Target: human PDHK2 (hPDHK2) (Homo sapiens (Human), UniProt Q15119)
Assay: Inhibitory action of PDHK activity in vitro (kinase reaction, residual PDH activity measured)
Assay type: biochemical
Method: In the case of human PDHK2 (hPDHK2, Genbank Accession No. NM_002611), modified hPDHK2 cDNA wherein FLAG-Tag sequence is added to the N terminal by a polymerase linkage reaction was prepared based on hPDHK2 cDNA clone (pReceiver-M01/PDK2-GeneCopoeia), and cloned into a vector (pET17b-Novagen). The recombinant construct was transformed into Escherichia coli (DH5α-TOYOBO). The recombinant clones were identified, plasmid DNA was isolated and subjected to the DNA sequence analysis. One clone which had the expected nucleic acid sequence was selected for expression work.
During the assay, the hPDHK2 enzyme concentration was set to the minimal concentration at which PDH is inhibited the most.
0.05 U/mL PDH (porcine heart PDH complex, Sigma P7032) and 1.6 μg/mL hPDHK2 were mixed in a buffer (50 mmol/L 3-morpholinopropanesulfonic acid (pH 7.0), 20 mmol/L dipotassium hydrogen phosphate, 60 mmol/L potassium chloride, 2 mmol/L magnesium chloride, 0.4 mmol/L EDTA, and 0.2% Pluronic F-68, 2 mmol/L dithiothreitol), the mixture was incubated at 4° C. overnight to give PDH/hPDHK2 complex. The test compound was diluted with dimethyl sulfoxide (DMSO). PDH/hPDHK2 complex (20 μL), test compound (1.5 μL) and 3.53 μmol/L ATP (diluted with buffer, 8.5 μL) were added to a half area 96 well UV-transparent microplate (Corning 3679), and PDHK reaction was performed at room temperature for 45 min. Instead of the test compound, DMSO (1.5 μL) was added to a control well. DMSO (1.5 μL) was added instead of the test compound to a blank well for the measurement of the maximum rate of PDH reaction, and hPDHK2 was not added. Than, 10 μL of substrates (5 mmol/L sodium pyruvate, 5 mmol/L Coenzyme A, 12 mmol/L NAD, and 5 mmol/L thiamine pyrophosphate, diluted with buffer) was added. The mixture was incubated at room temperature for 90 min, and the residual PDH activity was measured. The absorbance at 340 nm before and after PDH reaction was measured on a microplate reader to detect NADH produced by the PDH reaction. The PDHK inhibitory rate (%) of the test compound was calculated from the formula [{(PDH activity of test compound—PDH activity of control)/PDH activity of blank—PDH activity of control)}×100]. The IC50 value was calculated from the concentrations of the test compound at two points enclosing 50% inhibition of the PDHK activity.

[1] = PDHK inhibitory activity, class symbol of IC50
[2] = read-out: PDHK inhibitory activity IC50
[3] = PDHK inhibitory activity (class symbol)
[4] = PDHK inhibitory activity IC50 (μmol/L)

IC50 [4]	Structure (SMILES)	IC50 [1]	IC50 [2]	IC50 [3]
	CC(=O)N(C)C[C@@H](O)COc1cc(-c2cnn(C)c2)c2c(c1)C(O)(C(F)(F)F)c1ccccc1-2 (stereo partly shown) [compound 499]	< 100 nM	39 nM	
	CC(C)(O)Cn1cc(-c2cc(CO)c3c(c2)C(O)(C(F)(F)F)c2ccccc2-3)cn1 (stereo not shown) [compound 661]		59 nM	< 100 nM
69 nM	Cc1cc(-c2cnn(CC(=O)O)c2)c2c(c1)[C@@](O)(C(F)(F)F)c1ccccc1-2 (stereo in doubt) [compound 550]	< 100 nM		
	Cn1cc(-c2cc(CO)c3c(c2)C(O)(C(F)(F)F)c2ccccc2-3)cn1 (stereo not shown) [compound 570]	100 to 1000 nM	110 nM	
	Cc1n[nH]c(-c2cccc3c2-c2ccccc2C3(O)C(F)(F)F)n1 (stereo not shown) [compound 313]	> 1000 nM	> 10000 nM	
	Cc1nnc(-c2cccc3c2-c2ccccc2C3(O)C(F)(F)F)o1 (stereo not shown) [compound 267]	> 1000 nM	1200 nM	
	CC(=O)N(C)CCOc1cc(Cl)c2c(c1)C(O)(C(F)(F)F)c1ccccc1-2 (stereo not shown) [compound 388]	< 100 nM	63 nM	
	CN(CCOc1cc(Cl)c2c(c1)C(O)(C(F)(F)F)c1ccccc1-2)S(C)(=O)=O (stereo not shown) [compound 408]	< 100 nM	65 nM	
35 nM	O=C(O)CCCn1cc(-c2cc(F)cc3c2-c2ccccc2[C@]3(O)C(F)(F)F)cn1 (stereo in doubt) [compound 537]	< 100 nM		
	Cn1cc(-c2cc(C(=O)N3CC(CO)C3)cc3c2-c2ccccc2C3(O)C(F)(F)F)cn1 (stereo not shown) [compound 374]	< 100 nM	49 nM	
	Cc1cc(C(=O)N2CCC2)cc2c1-c1ccccc1C2(O)C(F)(F)F (single isomer, unassigned) [compound 136]	< 100 nM	25 nM	
	Cn1cc(-c2cc(C(=O)NCCCCO)cc3c2-c2ccccc2C3(O)C(F)(F)F)cn1 (stereo not shown) [compound 345]	100 to 1000 nM	121 nM	
	OC1(C(F)(F)F)c2ccccc2-c2ccc(-c3ccc(F)cc3)cc21 (stereo not shown) [compound 171]	100 to 1000 nM	951 nM	
	O=C(c1cccc2c1-c1ccccc1C2(O)C(F)(F)F)C1CC1 (stereo not shown) [compound 83]	> 1000 nM	1140 nM	
	CC(C)(C)CCc1cc(-c2cnn(C(CO)CO)c2)c2c(c1)C(O)(C(F)(F)F)c1ccccc1-2 (single isomer, unassigned) [compound 669]		17 nM	< 100 nM
	CC(=O)N(C)c1ccc2c(c1)C(O)(C(F)(F)F)c1ccccc1-2 (stereo not shown) [compound 96]	> 1000 nM	6570 nM	
	CC(=O)N1CCN(c2ccc3c(c2)C(O)(C(F)(F)F)c2ccccc2-3)CC1 (stereo not shown) [compound 165]	100 to 1000 nM	957 nM	
	OCCCn1cc(-c2cccc3c2-c2ccccc2C3(O)C(F)(F)F)cn1 (stereo not shown) [compound 436]	< 100 nM	65 nM	
	CC(=O)c1cc(OCCN2CCCC2=O)cc2c1-c1ccccc1C2(O)C(F)(F)F (stereo not shown) [compound 599]	< 100 nM	33 nM	

IC50 [4]	Structure (SMILES)	IC50 [1]	IC50 [2]	IC50 [3]
	NC(=O)COC1CN(C(=O)c2ccc3c(c2)C(O)(C(F)(F)F)c2ccccc2-3)C1 (stereo not shown) [compound 116]	100 to 1000 nM	601 nM	
	CNC(=O)C1CCN(C(=O)c2ccc3c(c2)C(O)(C(F)(F)F)c2ccccc2-3)C1 (stereo not shown) [compound 227]	> 1000 nM	1050 nM	
	NC(=O)c1cc(-c2cnn(CC3CCCCC3)c2)cc2c1-c1ccccc1C2(O)C(F)(F)F (stereo not shown) [compound 662]		34 nM	< 100 nM
	CC(=O)NCCOc1ccc2c(c1)C(O)(C(F)(F)F)c1ccccc1-2 (stereo not shown) [compound 325]	> 1000 nM	1080 nM	
	CNC(=O)CCCCOc1ccc2c(c1)C(O)(C(F)(F)F)c1ccccc1-2 (stereo not shown) [compound 305]	100 to 1000 nM	562 nM	
	CN(C)C(=O)C1CCN(c2ccc3c(c2)C(O)(C(F)(F)F)c2ccccc2-3)CC1 (stereo not shown) [compound 232]	> 1000 nM	1990 nM	
	COC(=O)C1CCN(C(=O)c2ccc3c(c2)C(O)(C(F)(F)F)c2ccccc2-3)C1 (stereo not shown) [compound 206]	> 1000 nM	2240 nM	
	O=C(c1ccc2c(c1)C(O)(C(F)(F)F)c1ccccc1-2)N1CCCCC1 (stereo not shown) [compound 52]	> 1000 nM	4010 nM	
	CC(C)CCOc1ccc2c(c1)C(O)(C(F)(F)F)c1ccccc1-2 (stereo not shown) [compound 276]	> 1000 nM	1010 nM	
	Cn1cc(-c2cc(OCC(=O)O)cc3c2-c2ccccc2C3(O)C(F)(F)F)cn1 (stereo not shown) [compound 433]	100 to 1000 nM	388 nM	
	OC1(C(F)(F)F)c2ccccc2-c2cccc(Cl)c21 (stereo not shown) [compound 8]	> 1000 nM	45600 nM	
	Cn1cc(-c2cc(OCCNC(=O)CCC(=O)C(F)(F)F)cc3c2-c2ccccc2C3(O)C(F)(F)F)cn1 (stereo not shown) [compound 464]	< 100 nM	42 nM	
	CCOc1ccc2c(c1)-c1ccccc1C2(O)C(F)(F)F (stereo not shown) [compound 67]	> 1000 nM	4200 nM	
	O[C@H]1CCN(CCOc2ccc3c(c2)C(O)(C(F)(F)F)c2ccccc2-3)C1 (stereo partly shown) [compound 389]	100 to 1000 nM	822 nM	
	NC(=O)c1ccc2c(c1)C(O)(C(F)(F)F)c1ccccc1-2 (stereo not shown) [compound 29]	> 1000 nM	5740 nM	
	O=C1NCCN1CCOc1ccc2c(c1)C(O)(C(F)(F)F)c1ccccc1-2 (stereo not shown) [compound 469]	100 to 1000 nM	193 nM	
	OCCCOc1ccc2c(c1)C(O)(C(F)(F)F)c1ccccc1-2 (stereo not shown) [compound 284]	> 1000 nM	1170 nM	
	CC1CN(C(=O)c2ccc3c(c2)C(O)(C(F)(F)F)c2ccccc2-3)C1 (stereo not shown) [compound 88]	> 1000 nM	2530 nM	
	CC(C)(C)Cn1cc(-c2cccc3c2-c2ccccc2C3(O)C(F)(F)F)cn1 (stereo not shown) [compound 524]	< 100 nM	87 nM	

IC50 [4]	Structure (SMILES)	IC50 [1]	IC50 [2]	IC50 [3]
	COc1cc(-c2cnn(CCC(=O)O)c2)c2c(c1)C(O)(C(F)(F)F)c1ccccc1-2 (single isomer, unassigned) [compound 588]	< 100 nM	29 nM	
	CC(C)(C)n1cc(-c2cc(C(N)=O)c3c(c2)C(O)(C(F)(F)F)c2ccccc2-3)cn1 (stereo not shown) [compound 639]		63 nM	< 100 nM
17 nM	OCC1(n2cc(-c3cc(F)cc4c3-c3ccccc3[C@]4(O)C(F)(F)F)cn2)CCCCC1 (stereo in doubt) [compound 545]	< 100 nM		
	CNC(=O)CCOc1ccc2c(c1)C(O)(C(F)(F)F)c1ccccc1-2 (stereo not shown) [compound 302]	> 1000 nM	1170 nM	
	CN(C)C(=O)COC1CN(C(=O)c2ccc3c(c2)C(O)(C(F)(F)F)c2ccccc2-3)C1 (stereo not shown) [compound 118]	100 to 1000 nM	839 nM	
	O=C(c1ccc2c(c1)C(O)(C(F)(F)F)c1ccccc1-2)c1cccs1 (stereo not shown) [compound 99]	100 to 1000 nM	718 nM	
	CNC(=O)c1ccc(-c2ccc3c(c2)C(O)(C(F)(F)F)c2ccccc2-3)cc1Cl (stereo not shown) [compound 240]	100 to 1000 nM	149 nM	
	CC(C)(C)OC(=O)NCCOc1ccc2c(c1)C(O)(C(F)(F)F)c1ccccc1-2 (stereo not shown) [compound 323]	100 to 1000 nM	362 nM	
	O=C(c1ccc2c(c1)C(O)(C(F)(F)F)c1ccccc1-2)N1CC1 (stereo not shown) [compound 78]	> 1000 nM	1360 nM	
	COC1CN(C(=O)c2ccc3c(c2)C(O)(C(F)(F)F)c2ccccc2-3)C1 (stereo not shown) [compound 86]	100 to 1000 nM	378 nM	
	OC1(C(F)(F)F)c2ccccc2-c2ccc(Oc3ccccc3)cc21 (stereo not shown) [compound 187]	> 1000 nM	2480 nM	
	C/C=C/c1ccc2c(c1)C(O)(C(F)(F)F)c1ccccc1-2 (stereo not shown) [compound 248]	> 1000 nM	1020 nM	
	COC(=O)Nc1cccc2c1-c1ccccc1C2(O)C(F)(F)F (stereo not shown) [compound 130]	> 1000 nM	> 10000 nM	
	CN(C)C(=O)COc1ccc2c(c1)C(O)(C(F)(F)F)c1ccccc1-2 (stereo not shown) [compound 290]	100 to 1000 nM	793 nM	
	CC(=O)N(C)CCCOc1ccc2c(c1)C(O)(C(F)(F)F)c1ccccc1-2 (stereo not shown) [compound 334]	100 to 1000 nM	674 nM	
	Cn1nnc(-c2cccc3c2-c2ccccc2C3(O)C(F)(F)F)n1 (stereo not shown) [compound 250]	> 1000 nM	1610 nM	
	OC1(C(F)(F)F)c2ccccc2-c2c(-c3cncnc3)cccc21 (stereo not shown) [compound 300]	100 to 1000 nM	114 nM	
	CNC(=O)c1ccc2c(c1)C(O)(C(F)(F)F)c1ccccc1-2 (stereo not shown) [compound 30]	> 1000 nM	8610 nM	
